Measurements: ChEMBL document CHEMBL5338745, “Factor XIa Inhibitors in Anticoagulation Therapy: Recent Advances and Perspectives” (J Med Chem, 2023)
Values belong to the compound of their own block, whether it stands above or below them.

How the values were obtained:
[1] = Half life in mouse; assay type: ADME, organism-based; settings: in vivo
[2] = Selectivity index, ratio IC50 for FXIa (unknown origin) to IC50 for FD (unknown origin)
Coagulation factor XI [3] = molecular target: T1, Coagulation factor XI (Homo sapiens, UniProt P03951); assay: Inhibition of FXIa (unknown origin)
T1 sequence (P03951 19-387 limits assumed): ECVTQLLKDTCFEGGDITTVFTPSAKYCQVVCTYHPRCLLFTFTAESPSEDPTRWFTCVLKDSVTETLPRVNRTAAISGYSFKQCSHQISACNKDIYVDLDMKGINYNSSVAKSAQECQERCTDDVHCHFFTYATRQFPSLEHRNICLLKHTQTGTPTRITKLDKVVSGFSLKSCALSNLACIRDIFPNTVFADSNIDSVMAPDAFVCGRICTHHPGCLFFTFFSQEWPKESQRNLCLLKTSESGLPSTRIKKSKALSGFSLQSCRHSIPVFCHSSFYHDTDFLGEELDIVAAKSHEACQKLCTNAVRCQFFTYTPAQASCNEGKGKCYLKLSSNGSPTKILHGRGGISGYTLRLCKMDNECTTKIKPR
T1 sequence (P03951 388-625 limits assumed): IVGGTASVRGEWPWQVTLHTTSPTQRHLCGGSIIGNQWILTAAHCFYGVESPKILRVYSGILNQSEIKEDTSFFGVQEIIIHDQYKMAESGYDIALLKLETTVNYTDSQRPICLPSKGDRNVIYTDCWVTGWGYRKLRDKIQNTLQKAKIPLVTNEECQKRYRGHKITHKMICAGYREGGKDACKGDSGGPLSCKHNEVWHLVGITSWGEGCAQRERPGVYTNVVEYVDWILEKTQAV

in vivo [4] = settings: rhesus monkey, iv, 3 mg/kg
in vivo [5] = settings: rat, iv, 0.3 mg/kg
[6] = MRT in iv dosed rat measured upto 8 hrs by LC-MS/MS analysis; assay type: ADME, organism-based; settings: in vivo
Plasma kallikrein [7] = molecular target: T2, Plasma kallikrein (Homo sapiens, UniProt P03952)
T2 sequence (P03952 20-390 limits assumed): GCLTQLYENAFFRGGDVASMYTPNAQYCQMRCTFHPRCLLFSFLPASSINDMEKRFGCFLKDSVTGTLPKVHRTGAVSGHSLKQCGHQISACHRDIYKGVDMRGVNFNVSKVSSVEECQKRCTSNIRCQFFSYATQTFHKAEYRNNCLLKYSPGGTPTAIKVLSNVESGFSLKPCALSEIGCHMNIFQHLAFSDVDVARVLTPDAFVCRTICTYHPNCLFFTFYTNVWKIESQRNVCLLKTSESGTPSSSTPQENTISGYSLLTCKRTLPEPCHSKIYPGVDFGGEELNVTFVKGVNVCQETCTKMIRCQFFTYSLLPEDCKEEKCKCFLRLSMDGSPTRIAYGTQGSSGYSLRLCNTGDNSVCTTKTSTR
T2 sequence (P03952 391-638 limits assumed): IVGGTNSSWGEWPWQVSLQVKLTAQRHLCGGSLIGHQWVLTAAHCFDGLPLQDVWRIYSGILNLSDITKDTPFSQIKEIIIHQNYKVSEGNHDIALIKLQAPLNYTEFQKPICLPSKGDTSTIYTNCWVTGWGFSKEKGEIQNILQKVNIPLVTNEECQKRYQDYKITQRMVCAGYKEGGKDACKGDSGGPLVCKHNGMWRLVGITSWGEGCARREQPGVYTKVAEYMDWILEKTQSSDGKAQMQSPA

Coagulation factor XI [8] = molecular target: T1, Coagulation factor XI; assay: Inhibition of human FXIa by absorbance based analysis
[9] = Clearance in Sprague-Dawley rat at 1 mg/kg, iv; assay type: ADME, organism-based; settings: in vivo
Plasma [10] = assay: Anticoagulant activity in human plasma assessed as concentration required to double the activated partial thromboplastin time; assay type: functional
[11] = Half life in Sprague-Dawley rat at 1 mg/kg, iv; assay type: ADME, organism-based; settings: in vivo
Plasma [12] = assay: Anticoagulant activity in human plasma assessed as concentration required to 1.5 times activation of partial thromboplastin time; assay type: functional
[13] = Half life in Sprague-Dawley rat at 0.5 mg/kg, iv; assay type: ADME, organism-based; settings: in vivo
[14] = Oral bioavailability in Sprague-Dawley rat at 3 mg/kg; assay type: ADME, organism-based; settings: in vivo
[15] = Clearance in Sprague-Dawley rat at 0.5 mg/kg, iv; assay type: ADME, organism-based; settings: in vivo
Prothrombin = Prothrombin (Homo sapiens, UniProt P00734); assay: Inhibition of human thrombin
Coagulation factor XI [16] = molecular target: T1, Coagulation factor XI; assay: Inhibition of human FXIa
Trypsin = Trypsin (Homo sapiens, UniProt P07477+P07478+P35030); assay: Inhibition of human trypsin; assay type: protein assay
[17] = Half life in human at 0.6 mg/kg, iv administered for 5 days; assay type: ADME, organism-based; settings: in vivo, time 5 day
Coagulation factor XI [18] = molecular target: T1, Coagulation factor XI; assay: Inhibition of FXIa (unknown origin) relative to control; settings: concentration not given here
[19] = Oral bioavailability in Sprague-Dawley rat at 2 mg/kg by LC-MS/MS analysis; assay type: ADME, organism-based; settings: in vivo
[20] = Half life in Sprague-Dawley rat at 1 mg/kg, iv by LC-MS/MS analysis; assay type: ADME, organism-based; settings: in vivo
[21] = Oral bioavailability in cynomolgus monkey at 10 mg/kg, […]; assay type: ADME, organism-based, Macaca fascicularis; settings: in vivo
[22] = Half life in cynomolgus monkey at 1 mg/kg, iv; assay type: ADME, organism-based, Macaca fascicularis; settings: in vivo
[23] = Clearance in cynomolgus monkey at 1 mg/kg, iv; assay type: ADME, organism-based, Macaca fascicularis; settings: in vivo
Coagulation factor XI [24] = molecular target: T1, Coagulation factor XI; assay: Binding affinity to FXIa (unknown origin) assessed as inhibition constant
Plasma kallikrein [25] = molecular target: T2, Plasma kallikrein; assay: Binding affinity to PKal (unknown origin) assessed as inhibition constant

IC50 (Coagulation factor XI [3]): 1.6 nM
Structure (SMILES): Nc1ccc(-c2cnc(Cn3c4c(c(-c5cc(Cl)ccc5-n5cnnn5)cc3=O)OCC4)[nH]2)c(F)n1

clearance (in vivo [4]): 2 mL/min/kg
clearance (in vivo [5]): 13.8 mL/min/kg
Structure (SMILES): CC[C@@H](C(=O)Nc1ccc(C(N)=O)c(F)c1)n1cc(OC)c(-c2cc(Cl)ccc2-n2cc(C(F)(F)F)nn2)cc1=O

Ki (Coagulation factor XI [3]): 6 nM
Structure (SMILES): O=C(O)c1ccc(NC(=O)[C@H](CC2=CC=CCC2)n2ccc(-c3cc(Cl)ccc3-n3cnnn3)cc2=O)cc1

clearance (in vivo [4]): 5.5 mL/min/kg
clearance (in vivo [5]): 13.3 mL/min/kg
Structure (SMILES): CC[C@@H](C(=O)Nc1ccc(C(N)=O)c(F)c1)n1cc(OC)c(-c2cc(Cl)ccc2-n2cc(Cl)nn2)cc1=O

half-life [13]: 1 h
bioavailability [14]: 37.1%
IC50 (Coagulation factor XI [3]): 3.9 nM
clearance [15]: 5.65 mL/min/kg
Structure (SMILES): C[C@@H]1CCC[C@H](c2ccc(-c3cc(Cl)ccc3-n3cc(Cl)nn3)oc2=O)c2cc(ccn2)-c2c(cnn2C(F)F)NC1=O
EC (Plasma [10]): 0.87 µM

IC50 (Coagulation factor XI [3]): 3.3 nM
bioavailability [19]: 25.3%
half-life [20]: 1.6 h
Structure (SMILES): Nc1ccc(-c2nc(F)c([C@@H]3[C@H]4C[C@H]4c4cc(-c5cc(Cl)ccc5-n5cnnn5)cc(=O)n43)[nH]2)c(F)n1

bioavailability [21]: 36.8%
IC50 (Coagulation factor XI [3]): 6.1 nM
half-life [22]: 1.05 h
clearance [23]: 8.6 mL/min/kg
Structure (SMILES): [2H]C([2H])([2H])n1ncc2c1-c1ccnc(c1)[C@@H](c1coc(-c3cc(Cl)ccc3-n3cc(Cl)nn3)cc1=O)CCC[C@@H](C)C(=O)N2
EC (Plasma [10]): 2.7 µM

The remaining lines, values behind:

Structure (SMILES): CC(C)c1cc(CCN2CCc3cccc(C(=O)O)c32)cc(-c2ccc3c(c2)[C@H](N)CO3)c1
half-life [1]: 9 h
Ratio IC50 [2]: 700

Structure (SMILES): COC(=O)Nc1ccc2c(c1)NC(=O)[C@H](C)CCC[C@H](c1ccc(-c3cc(Cl)ccc3-n3cc(C(F)(F)F)cn3)c[n+]1[O-])c1nc-2c(C)[nH]1
MRT [6]: 11 h
IC50 (Coagulation factor XI [3]): 0.9 nM
IC50 (Plasma kallikrein [7]): 42 nM

Structure (SMILES): O=C(O)c1cc2cc(NC(=O)[C@H](Cc3ccc(N4CCN(C5CCC(O)CC5)CC4=O)cc3)N3CCN(c4cc(Cl)ccc4-n4cnnn4)C(=O)C3=O)ccc2[nH]1 (stereo not given in full)
IC50 (Coagulation factor XI [8]): 1.75 nM
clearance [9]: 33.3 mL/min/kg
EC (Plasma [10]): 1.1 µM
half-life [11]: 0.46 h

Structure (SMILES): C[C@H]1COc2cn([C@@H](CC3CCCCO3)C(=O)Nc3ccc(C(N)=O)cc3)c(=O)cc2-c2c(ccc(Cl)c2F)C1 (stereo not given in full)
IC50 (Coagulation factor XI [3]): 1.7 nM
IC50 (Plasma kallikrein [7]): 60 nM

Structure (SMILES): C[C@@H]1CCC[C@H](n2cnc(-c3cc(Cl)ccc3-n3cc(Cl)nn3)cc2=O)c2cc(ccn2)-c2c(cnn2C(F)F)NC1=O [MILVEXIAN]
EC (Plasma [12]): 0.5 µM

Structure (SMILES): O=C(OC[C@H]1O[C@@H](OC(=O)c2cc(OS(=O)(=O)O)cc(OS(=O)(=O)O)c2)[C@H](OC(=O)c2cc(OS(=O)(=O)O)cc(OS(=O)(=O)O)c2)[C@@H](OC(=O)c2cc(OS(=O)(=O)O)cc(OS(=O)(=O)O)c2)[C@@H]1OC(=O)c1cc(OS(=O)(=O)O)cc(OS(=O)(=O)O)c1)c1cc(OS(=O)(=O)O)cc(OS(=O)(=O)O)c1
IC50 (Coagulation factor XI [3]): 1400 nM

Structure (SMILES): O=C(O)c1ccc(NC(=O)[C@H](Cc2ccccc2)N2CCC(c3cc(Cl)ccc3-n3cc(Cl)nn3)=CC2=O)cc1
IC50 (Coagulation factor XI [3]): 1.73 nM

Structure (SMILES): C[C@@H](NC(=O)N1C(=O)[C@H](Cc2ccnc(N)c2)[C@H]1C(=O)O)C1CCCCC1 [FRUNEXIAN]
IC50 (Prothrombin): > 20000 nM
IC50 (Coagulation factor XI [16]): 7.1 nM
IC50 (Trypsin): > 4800 nM
half-life [17]: 0.75 h

Structure (SMILES): Cc1ccc(C(=O)Nc2ccc(CP(=O)(O)O)cc2CP(=O)(O)O)cc1NC(=O)c1cccc(NC(=O)Nc2cccc(C(=O)Nc3cc(C(=O)Nc4ccc(CP(=O)(O)O)cc4CP(=O)(O)O)ccc3C)c2)c1
inhibition (Coagulation factor XI [18]): 68%

Structure (SMILES): COC(=O)NCC[C@@H]1Cc2cccc(c2)[C@@H](n2cnc(-c3cc(Cl)ccc3-n3cc(C(F)(F)F)cn3)cc2=O)CCC[C@@H](C)C(=O)N1
Ki (Coagulation factor XI [24]): 5 nM
Ki (Plasma kallikrein [25]): 1790 nM
